Experiment [1] deals with T1, G12D-mutant human KRAS (amino acid residues 1-188) (Homo sapiens, UniProt P01116, G12D).
T1 construct: G12D or G12C-mutant human KRAS (amino acid residues 1-188) with FLAG tag; made in house; host or cells: E. coli
Description: KRAS Binding Disruption Assay (AlphaScreen; biotinylated KRpep-2d analogue or RAF1-RBD), G12D. As to conditions: KRAS G12D; geometric mean; read-out: KRAS GMean IC50 (uM) MUTATION: G12D. An outline of the steps: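 AlphaScreen readout: signal falls as compound displaces biotinylated KRpep-2d analogue or RAF1-RBD from mutant KRAS. Both partners at 5-20 nM, 1 h binding at 25° C, then 10 μg/mL Anti-Flag acceptor and streptavidin donor beads for 1 h. IC50 by nonlinear regression of % inhibition.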

The target of experiment [2] is T2, G12C-mutant human KRAS (amino acid residues 1-188) (Homo sapiens, UniProt P01116, G12C).
T2 construct: G12D or G12C-mutant human KRAS (amino acid residues 1-188) with FLAG tag; made in house; host or cells: E. coli
T2 sequence (P01116 1-188 isoform P01116-2 G12C): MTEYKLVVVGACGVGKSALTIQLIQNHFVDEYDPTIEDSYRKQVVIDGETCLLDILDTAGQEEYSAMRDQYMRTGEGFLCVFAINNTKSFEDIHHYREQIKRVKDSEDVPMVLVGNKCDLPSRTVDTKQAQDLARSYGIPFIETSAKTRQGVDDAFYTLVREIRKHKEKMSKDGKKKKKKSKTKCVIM
Description: KRAS Binding Disruption Assay (AlphaScreen; biotinylated KRpep-2d analogue or RAF1-RBD), G12C. As to conditions: geometric mean, read-out: KRAS GMean IC50 (uM) MUTATION: G12C. The protocol:
Compound binding disrupts the interaction of KRpep-2d or RAF1-RBD with KRAS, leading to a decrease in Alpha signal.
All assay components were prepared in 20 mM HEPES (pH 7.5), 100 mM NaCl, 5 mM MgCl2, 0.01% Tween-20, and 0.01% BSA. Biotinylated analogues of KRpep-2d were custom synthesized. The binding disruption assays were performed using 5-20 nM of mutant KRAS and 5-20 nM of either biotinylated KRpep-2d analogue or RAF1-RBD. 19 μL of KRAS protein and 4 μL of biotinylated KRpep-2d or RAF1-RBD were added to the wells of a 384-well plate containing 1 μL of various concentrations of test compound or DMSO vehicle. 16 wells containing KRAS, biotinylated KRpep-2d or RAF1-RBD, and 5% DMSO served as high controls. 16 wells containing KRAS only and 5% DMSO served as low controls. Binding reactions were incubated for 1 hour at 25° C., then Anti-Flag Acceptor and Streptavidin Donor Alpha beads were added at a final concentration of 10 μg/mL for an additional hour at room temperature. Alpha signal was read out on a Perkin Elmer Envision HTS instrument. The percentage inhibition at individual compound concentrations relative to high and low controls was calculated. The data were analyzed by using nonlinear regression to generate IC50 values.

T1 sequence (P01116 1-188 isoform P01116-2 G12D): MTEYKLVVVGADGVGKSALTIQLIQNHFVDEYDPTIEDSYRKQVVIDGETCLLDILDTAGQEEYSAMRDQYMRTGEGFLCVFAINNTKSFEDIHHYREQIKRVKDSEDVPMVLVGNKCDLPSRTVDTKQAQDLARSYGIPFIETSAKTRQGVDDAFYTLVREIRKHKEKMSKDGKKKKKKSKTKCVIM

As for `CCN(CC)C1CN(c2nc(N3C[C@H]4CC[C@@H](C3)N4)c3ccc(-c4cc(O)cc5ccccc45)c(F)c3n2)C1` [P-0637, 4-(4-((1R,5S)-3,8-diazabicyclo[3.2.1]octan-3-yl)-2-(3-(diethylamino)azetidin-1-yl)-8-fluoroquinazolin-7-yl)naphthalen-2-ol], the IC50 lay within 0.0001 to 10 µM in experiment [1] and 10 to 100 µM in experiment [2].

Regarding `Oc1cc(-c2ccc3c(N4C[C@H]5CC[C@@H](C4)N5)nc(N4CC(N5CC(F)C5)C4)nc3c2F)c2ccccc2c1` [P-0638, 4-(4-((1R,5S)-3,8-diazabicyclo[3.2.1]octan-3-yl)-8-fluoro-2-(3-fluoro-[1,3′-biazetidin]-1′-yl)quinazolin-7-yl)naphthalen-2-ol], the IC50 in experiment [1] fell in the range of 0.0001 to 10 µM; in experiment [2], 10 to 100 µM.

As for `CN(C)C1(CNc2nc(N3C[C@H]4CC[C@@H](C3)N4)c3ccc(-c4cc(O)cc5ccccc45)c(F)c3n2)CCOCC1` [P-0639, 4-(4-((1R,5S)-3,8-diazabicyclo[3.2.1]octan-3-yl)-2-(((4-(dimethylamino)tetrahydro-2H-pyran-4-yl)methyl)amino)-8-fluoroquinazolin-7-yl)naphthalen-2-ol], the figures for the IC50 in experiment [1] and in experiment [2] were 0.0001 to 10 µM and 10 to 100 µM, respectively.

As for `CN(C)C1(C(N)=O)CN(c2nc(N3C[C@H]4CC[C@@H](C3)N4)c3ccc(-c4cc(O)cc5ccccc45)c(F)c3n2)C1` [P-0640, 1-(4-((1R,5S)-3,8-diazabicyclo[3.2.1]octan-3-yl)-8-fluoro-7-(3-hydroxynaphthalen-1-yl)quinazolin-2-yl)-3-(dimethylamino)azetidine-3-carboxamide], the IC50 in experiment [1] was 0.0001 to 10 µM; in experiment [2] it was 10 to 100 µM.

For the compound `CN1CCCC12CN(c1nc(N3C[C@H]4CC[C@@H](C3)N4)c3ccc(-c4cc(O)cc5ccccc45)c(F)c3n1)C2` [P-0641, 4-(4-((1R,5S)-3,8-diazabicyclo[3.2.1]octan-3-yl)-8-fluoro-2-(5-methyl-2,5-diazaspiro[3.4]octan-2-yl)quinazolin-7-yl)naphthalen-2-ol], the IC50 in experiment [1] is 0.0001 to 10 µM; in experiment [2], 10 to 100 µM.

On to `NC(=O)CCN1[C@@H]2CC[C@H]1CN(c1nc(OCC34CCCN3CCC4)nc3c(F)c(-c4cc(O)cc5ccccc45)ccc13)C2` [P-0642, 3-((1R,5S)-3-(8-fluoro-7-(3-hydroxynaphthalen-1-yl)-2-((tetrahydro-1H-pyrrolizin-7a(5H)-yl)methoxy)quinazolin-4-yl)-3,8-diazabicyclo[3.2.1]octan-8-yl)propanamide], for which the IC50 in experiment [1] and in experiment [2] was 0.0001 to 10 µM in each case.

`CN1CC2(C1)CN(c1nc(N3C[C@H]4CC[C@@H](C3)N4)c3ccc(-c4cc(O)cc5ccccc45)c(F)c3n1)C2` [P-0643, 4-(4-((1R,5S)-3,8-diazabicyclo[3.2.1]octan-3-yl)-8-fluoro-2-(6-methyl-2,6-diazaspiro[3.3]heptan-2-yl)quinazolin-7-yl)naphthalen-2-ol]: the IC50 in experiment [1] lay within 0.0001 to 10 µM; in experiment [2], 10 to 100 µM.

As for `Fc1cc2c(N3C[C@H]4CC[C@@H](C3)N4)nc(OCC34CCCN3CCC4)nc2c(F)c1-c1c(Cl)cnc2[nH]ccc12` [P-0645, 4-((1R,5S)-3,8-diazabicyclo[3.2.1]octan-3-yl)-7-(5-chloro-1H-pyrrolo[2,3-b]pyridin-4-yl)-6,8-difluoro-2-((tetrahydro-1H-pyrrolizin-7a(5H)-yl)methoxy)quinazoline], the IC50 was 0.0001 to 10 µM in experiment [1] and 10 to 100 µM in experiment [2].

`Cc1ccc2[nH]cc(-c3ccc4c(N5C[C@H]6CC[C@@H](C5)N6)nc(OCC56CCCN5CCC6)nc4c3F)c2c1F` [P-0646, 4-((1R,5S)-3,8-diazabicyclo[3.2.1]octan-3-yl)-8-fluoro-7-(4-fluoro-5-methyl-1H-indol-3-yl)-2-((tetrahydro-1H-pyrrolizin-7a(5H)-yl)methoxy)quinazoline]: the IC50 in experiment [1] and in experiment [2] was 0.0001 to 10 µM throughout.

Values taken from patent US20230081426A1, “COMPOUNDS AND METHODS FOR KRAS MODULATION AND INDICATIONS THEREFOR” (Plexxikon Inc., priority 2020, published 2023).
